Reference: patent US12016334B2, “Composition comprising sulphated galactose, and implementations thereof” (priority 2018, dated 2024)

Test system: Alternaria solani
Test: Detached tomato leaf antifungal assay
Type: in vivo
Conditions: for size of the fungus induced damage compared to untreated control: 80 mg/L spray

| Compound | fungal lesion size compared to untreated control (8 mg/L spray) | size of the fungus induced damage compared to untreated control |
| --- | --- | --- |
| O=C[C@H](O)[C@@H](O)[C@@H](OS(=O)(=O)O)[C@H](O)CO [Gal-S, D-galactose-4-O-sulphate] | does not show significant reduction in the fungal lesion size | significant reduction in the size of the fungus induced damage |
| O=Cc1ccc(CO)o1 [HMF, Hydroxymethylfurfural] | – | significant reduction in the size of the fungus induced damage |
